Source: the NIST ThermoML archive (doi:10.1016/j.jct.2007.11.013)

Test: xn = mol fraction of the nth substance listed
Conditions: Liquid, Bellows volumetry

CC(C)C [2-methylpropane] + CCCC
mass density [kg/m3]
Conditions	280 K	320 K	360 K	400 K	440 K
1000 kPa, x2 = 0.2656	580.73	530.15	–	–	–
1000 kPa, x2 = 0.4913	585.41	535.84	–	–	–
1000 kPa, x2 = 0.7508	589.56	541.44	–	–	–
2000 kPa, x2 = 0.2656	582.43	532.88	469.97	–	–
2000 kPa, x2 = 0.4913	586.92	538.41	478.17	–	–
2000 kPa, x2 = 0.7508	590.9	543.79	–	–	–
3000 kPa, x2 = 0.2656	583.92	535.39	475.52	–	–
3000 kPa, x2 = 0.4913	588.36	540.81	483.1	385.11	–
3000 kPa, x2 = 0.7508	592.32	546.12	490.53	402.2	–
5000 kPa, x2 = 0.2656	587.09	540.14	484.88	406.75	–
5000 kPa, x2 = 0.4913	591.12	545.4	491.8	417.26	–
5000 kPa, x2 = 0.7508	594.99	550.35	498.56	427.6	–
10000 kPa, x2 = 0.2656	593.89	550.53	502.82	446.63	376.07
10000 kPa, x2 = 0.4913	597.45	555.38	508.78	453.53	384.46
10000 kPa, x2 = 0.7508	601.36	559.85	514.37	460.33	393.12
20000 kPa, x2 = 0.2656	605.71	567.26	527.7	485.47	441.9
20000 kPa, x2 = 0.4913	608.98	571.45	532.51	490.78	447.31
20000 kPa, x2 = 0.7508	612.32	575.19	537.18	495.66	452.37
30000 kPa, x2 = 0.2656	615.41	580.65	545.48	509.52	474.54
30000 kPa, x2 = 0.4913	618.89	584.41	549.98	514.15	479.02
30000 kPa, x2 = 0.7508	621.81	587.77	554.09	518.42	483.18
40000 kPa, x2 = 0.2656	624.41	591.82	559.82	527.48	497.07
40000 kPa, x2 = 0.4913	627.45	595.5	563.9	531.91	501.25
40000 kPa, x2 = 0.7508	630.16	598.52	567.64	535.63	504.89
50000 kPa, x2 = 0.2656	632.48	601.55	571.85	542.19	514.8
50000 kPa, x2 = 0.4913	635.21	605.01	575.77	546.27	518.55
50000 kPa, x2 = 0.7508	637.79	607.82	579.14	549.67	521.88
60000 kPa, x2 = 0.2656	639.66	610.3	582.32	554.58	529.25
60000 kPa, x2 = 0.4913	642.4	613.74	586.24	558.4	532.82
60000 kPa, x2 = 0.7508	644.7	616.38	589.35	561.67	535.99
70000 kPa, x2 = 0.2656	646.31	618.47	591.65	565.35	541.79
70000 kPa, x2 = 0.4913	648.87	621.47	595.42	569.18	545.18
70000 kPa, x2 = 0.7508	650.96	623.97	598.27	572.18	548.23
80000 kPa, x2 = 0.2656	652.53	625.51	599.96	575	552.55
80000 kPa, x2 = 0.4913	654.98	628.69	603.53	578.67	556.07
80000 kPa, x2 = 0.7508	656.95	631.01	606.56	581.7	558.93
90000 kPa, x2 = 0.2656	658.15	632.18	607.66	583.7	562.49
90000 kPa, x2 = 0.4913	660.76	635.21	611.18	587.47	565.64
90000 kPa, x2 = 0.7508	662.63	637.49	613.96	590.11	568.41
100000 kPa, x2 = 0.2656	663.68	638.57	614.79	591.48	571.02
100000 kPa, x2 = 0.4913	666.14	641.34	618.14	595.11	574.54
100000 kPa, x2 = 0.7508	667.99	643.48	620.9	598.02	577.23
120000 kPa, x2 = 0.2656	673.84	649.73	627.56	605.85	586.73
120000 kPa, x2 = 0.4913	675.91	652.68	630.84	609.08	590.02
120000 kPa, x2 = 0.7508	677.69	654.79	633.4	611.77	592.51
140000 kPa, x2 = 0.2656	682.73	660.13	638.86	618.11	600.22
140000 kPa, x2 = 0.4913	685.03	662.76	642.02	621.57	603.26
140000 kPa, x2 = 0.7508	686.69	664.53	644.56	623.93	605.8
160000 kPa, x2 = 0.2656	691.28	669.26	649.01	628.97	612.2
160000 kPa, x2 = 0.4913	693.26	672	652.16	632.55	615.27
160000 kPa, x2 = 0.7508	694.86	673.62	654.38	634.89	617.59
180000 kPa, x2 = 0.2656	699.06	677.76	658.15	639.19	622.95
180000 kPa, x2 = 0.4913	700.72	680.38	661.25	642.45	625.93
180000 kPa, x2 = 0.7508	702.34	681.89	663.57	644.7	628.15
200000 kPa, x2 = 0.2656	706.05	685.47	666.71	648.34	632.67
200000 kPa, x2 = 0.4913	708	687.99	669.76	651.4	635.69
200000 kPa, x2 = 0.7508	709.43	689.51	672.02	653.9	637.8
